# Like-named read-outs stand apart in the source and are kept apart here.
# What was measured:
# PSMA(+) PC3 PIP cells = assay: Cell uptake, cell surface binding and internalization in PSMA(+) PC3 PIP cells; format: cell-based, human
# [1] = system: PSMA(+) PC3 PIP and PSMA(−) PC3 flu tumor xenografts; assay: Biodistribution of 177Lu compounds (Example 5)
smiles,measurement,setting,value
"O=C(O)CC[C@H](NC(=O)N[C@@H](CCCCN(Cc1ccc(Br)cc1)C(=O)CCCCNC(=O)CN1CCN(CC(=O)O)CCN(CC(=O)O)CCN(CC(=O)O)CC1)C(=O)O)C(=O)O [Ligand L1, (14S,18S)-9-(4-Bromobenzyl)-2,8,16-trioxo-1-(4,7,10-tris(carboxymethyl)-1,4,7,10-tetraazacyclododecan-1-yl)-3,9,15,17-tetraazaicosane-14,18,20-tricarboxylic acid]",Specific Cell Surface Binding,PSMA(+) PC3 PIP cells,36.49 ± 0.50 % IA/10^6 cells
same,specific internalization,PSMA(+) PC3 PIP cells,23.68 ± 0.16 % IA/10^6 cells
"O=C(O)CC[C@H](NC(=O)N[C@@H](CCCCNC(=O)CCCCCCC(=O)NCCCC[C@H](NC(=O)[C@@H](CCCCNC(=O)CCCc1ccc(I)cc1)NC(=O)CN1CCN(CC(=O)O)CCN(CC(=O)O)CCN(CC(=O)O)CC1)C(=O)O)C(=O)O)C(=O)O [Ligand L14, (3S,7S,26S,29R)-38-(4-iodophenyl)-5,13,20,28,35-pentaoxo-29-(2-(4,7,10-tris(carboxymethyl)-1,4,7,10-tetraazacyclododecan-1-yl)acetamido)-4,6,12,21,27,34-hexaazaoctatriacontane-1,3,7,26-tetracarboxylic acid]",Specific Cell Surface Binding,PSMA(+) PC3 PIP cells,53.0 ± 1.3 % IA/10^6 cells
"O=C(O)CC[C@H](NC(=O)N[C@@H](CCCCNC(=O)CCCCCCC(=O)NCCCC[C@@H](NC(=O)[C@@H](Cc1ccccc1)NC(=O)[C@@H](Cc1ccc(O)c(I)c1)NC(=O)CCC(C(=O)O)N1CCN(CC(=O)O)CCN(CC(=O)O)CCN(CC(=O)O)CC1)C(=O)O)C(=O)O)C(=O)O (stereo partly shown) [PSMA I&T, reference compound]",Specific Cell Surface Binding,PSMA(+) PC3 PIP cells; Table 6,64.5 ± 2.3 % IA/10^6 cells
same,specific internalization,PSMA(+) PC3 PIP cells; Table 6,21.1 ± 0.7 % IA/10^6 cells
"O=C(O)CC[C@H](NC(=O)N[C@@H](CCCCNC(=O)[C@H](Cc1ccc2ccccc2c1)NC(=O)[C@H]1CC[C@H](CNC(=O)CN2CCN(CC(=O)O)CCN(CC(=O)O)CCN(CC(=O)O)CC2)CC1)C(=O)O)C(=O)O [PSMA-617, reference compound]",Specific Cell Surface Binding,PSMA(+) PC3 PIP cells,44.6 ± 1.0 % IA/10^6 cells
same,specific internalization,PSMA(+) PC3 PIP cells,21.1 ± 0.9 % IA/10^6 cells
O=C([O-])CN1CCN(CC(=O)[O-])CCN(CC(=O)N[C@H](CCCCNC(=O)CCCc2ccc(I)cc2)C(=O)N[C@@H](CCCCNC(=O)CCCCCCC(=O)NCCCC[C@H](NC(=O)N[C@@H](CCC(=O)O)C(=O)O)C(=O)O)C(=O)O)CCN(CC(=O)[O-])CC1.[177Lu+3] [^177Lu-14],Kidney uptake,[1]; 48 h,17.47±4.18 % ID/g
same,blood uptake,[1]; 48 h,2.48±0.44 % ID/g
same,initial kidney uptake,[1]; time not given,49.49±19.55 % ID/g
same,fold clearance of kidney activity,[1]; to 48 h,~3 fold
O=C([O-])CN1CCN(CC(=O)[O-])CCN(CC(=O)O)C(Cc2ccc(NC(=S)NCCCCC(=O)NCCCC[C@H](NC(=O)N[C@@H](CCC(=O)O)C(=O)O)C(=O)O)cc2)CN(CC(=O)[O-])CC1.[177Lu+3] (stereo partly shown) [^177Lu-L7],PSMA(+) PC3 PIP tumor uptake,[1]; 2 h,25.4±7.2 % ID/g
same,PSMA(+) PC3 PIP tumor uptake,[1]; 24 h post-injection,7.0±1.5 % ID/g
same,PSMA(+) PC3 PIP tumor uptake,[1]; 48 h,7.0±3.3 % ID/g
same,PSMA(+) PC3 PIP tumor uptake,"[1]; fourth time point, time not given",2.3±0.0 % ID/g
O=C([O-])CN1CCN(CC(=O)[O-])CCN(CC(=O)NCC2CCC(C(=O)N(CCCCC(NC(=O)NC(CCC(=O)O)C(=O)O)C(=O)O)Cc3ccc(Br)cc3)CC2)CCN(CC(=O)[O-])CC1.[177Lu+3] (stereo not shown) [^177Lu-L11],fold lower uptake compared to 177Lu-L1,PSMA(+) PC3 PIP cells,> 1.5 fold

# Reference: patent publication US11478558B2, “Prostate-specific membrane antigen targeted high-affinity agents for endoradiotherapy of prostate cancer” (The Johns Hopkins University, priority 2017, dated 2022)
